Experimental data published in ChEMBL document CHEMBL3627608, “Crystal structures of human RIP2 kinase catalytic domain complexed with ATP-competitive inhibitors: Foundations for understanding inhibitor selectivity” (Bioorg Med Chem, 2015).

Experiments:
[1] = target: Dual specificity mitogen-activated protein kinase kinase 4 (Homo sapiens) (UniProt P45985); assay: Inhibition of MKK4 (unknown origin) at 10 uM after 120 mins P33 radiolabeled kinase activity assay
[2] = target: Bone morphogenetic protein receptor type-2 (Homo sapiens) (UniProt Q13873); assay: Inhibition of BMPR2 (unknown origin) at 10 uM after 120 mins P33 radiolabeled kinase activity assay
[3] = target: Serine/threonine-protein kinase ICK (Homo sapiens) (UniProt Q9UPZ9); assay: Inhibition of LCK2 (unknown origin) at 10 uM after 120 mins P33 radiolabeled kinase activity assay
[4] = target: Serine/threonine-protein kinase tousled-like 1 (Homo sapiens) (UniProt Q9UKI8); assay: Inhibition of TLK1 (unknown origin) at 10 uM after 120 mins P33 radiolabeled kinase activity assay
Serine/threonine-protein kinase tousled-like 1 (Homo sapiens), sequence (Q9UKI8 whole entry): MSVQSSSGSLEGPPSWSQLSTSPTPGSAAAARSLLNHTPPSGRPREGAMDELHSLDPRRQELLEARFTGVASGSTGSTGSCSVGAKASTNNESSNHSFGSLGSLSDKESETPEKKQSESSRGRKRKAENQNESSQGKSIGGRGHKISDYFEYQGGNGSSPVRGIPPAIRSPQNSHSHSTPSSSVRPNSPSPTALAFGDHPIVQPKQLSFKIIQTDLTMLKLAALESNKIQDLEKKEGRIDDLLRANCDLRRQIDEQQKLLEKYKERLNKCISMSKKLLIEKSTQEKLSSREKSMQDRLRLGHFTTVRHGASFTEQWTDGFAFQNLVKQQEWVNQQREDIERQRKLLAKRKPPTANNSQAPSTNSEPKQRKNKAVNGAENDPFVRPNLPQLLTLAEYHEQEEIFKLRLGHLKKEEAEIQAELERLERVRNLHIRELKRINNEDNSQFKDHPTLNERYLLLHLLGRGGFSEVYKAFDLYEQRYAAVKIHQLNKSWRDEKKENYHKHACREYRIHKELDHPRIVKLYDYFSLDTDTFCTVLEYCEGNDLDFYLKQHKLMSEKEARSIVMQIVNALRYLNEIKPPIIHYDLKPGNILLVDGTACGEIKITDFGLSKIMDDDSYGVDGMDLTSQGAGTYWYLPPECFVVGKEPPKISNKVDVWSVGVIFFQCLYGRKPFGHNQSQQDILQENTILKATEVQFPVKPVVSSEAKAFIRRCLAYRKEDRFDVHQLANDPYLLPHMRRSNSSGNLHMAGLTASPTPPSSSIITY

[5] = target: Calcium/calmodulin-dependent protein kinase type II subunit alpha (Homo sapiens) (UniProt Q9UQM7); assay: Inhibition of CAMK2alpha (unknown origin) at 10 uM after 120 mins P33 radiolabeled kinase activity assay
Calcium/calmodulin-dependent protein kinase type II subunit alpha (Homo sapiens), sequence (Q9UQM7 whole entry): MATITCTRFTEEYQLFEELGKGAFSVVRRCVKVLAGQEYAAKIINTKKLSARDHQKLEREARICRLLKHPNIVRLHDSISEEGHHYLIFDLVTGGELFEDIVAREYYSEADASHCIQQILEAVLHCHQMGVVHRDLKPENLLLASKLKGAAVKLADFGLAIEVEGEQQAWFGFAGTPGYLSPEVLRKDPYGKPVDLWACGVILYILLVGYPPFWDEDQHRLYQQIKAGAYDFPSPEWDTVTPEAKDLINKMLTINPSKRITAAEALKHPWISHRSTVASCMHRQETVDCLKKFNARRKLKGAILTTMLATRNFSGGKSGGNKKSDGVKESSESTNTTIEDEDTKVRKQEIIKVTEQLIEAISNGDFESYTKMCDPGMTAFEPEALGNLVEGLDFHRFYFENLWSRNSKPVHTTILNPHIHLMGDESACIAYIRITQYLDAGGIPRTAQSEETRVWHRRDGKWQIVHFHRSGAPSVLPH

[6] = target: Dual specificity mitogen-activated protein kinase kinase 6 (Homo sapiens) (UniProt P52564); assay: Inhibition of MKK6 (unknown origin) at 10 uM after 120 mins P33 radiolabeled kinase activity assay
[7] = target: Mitogen-activated protein kinase kinase kinase 8 (Homo sapiens) (UniProt P41279); assay: Inhibition of COT1 (unknown origin) at 10 uM after 120 mins P33 radiolabeled kinase activity assay
[8] = target: Protein kinase C theta type (Homo sapiens) (UniProt Q04759); assay: Inhibition of PKCtheta (unknown origin) at 10 uM after 120 mins P33 radiolabeled kinase activity assay
[9] = target: Calcium/calmodulin-dependent protein kinase kinase 2 (Homo sapiens) (UniProt Q96RR4); assay: Inhibition of CAMKK2 (unknown origin) at 10 uM after 120 mins P33 radiolabeled kinase activity assay
Calcium/calmodulin-dependent protein kinase kinase 2 (Homo sapiens), sequence (Q96RR4 2-588 limits assumed): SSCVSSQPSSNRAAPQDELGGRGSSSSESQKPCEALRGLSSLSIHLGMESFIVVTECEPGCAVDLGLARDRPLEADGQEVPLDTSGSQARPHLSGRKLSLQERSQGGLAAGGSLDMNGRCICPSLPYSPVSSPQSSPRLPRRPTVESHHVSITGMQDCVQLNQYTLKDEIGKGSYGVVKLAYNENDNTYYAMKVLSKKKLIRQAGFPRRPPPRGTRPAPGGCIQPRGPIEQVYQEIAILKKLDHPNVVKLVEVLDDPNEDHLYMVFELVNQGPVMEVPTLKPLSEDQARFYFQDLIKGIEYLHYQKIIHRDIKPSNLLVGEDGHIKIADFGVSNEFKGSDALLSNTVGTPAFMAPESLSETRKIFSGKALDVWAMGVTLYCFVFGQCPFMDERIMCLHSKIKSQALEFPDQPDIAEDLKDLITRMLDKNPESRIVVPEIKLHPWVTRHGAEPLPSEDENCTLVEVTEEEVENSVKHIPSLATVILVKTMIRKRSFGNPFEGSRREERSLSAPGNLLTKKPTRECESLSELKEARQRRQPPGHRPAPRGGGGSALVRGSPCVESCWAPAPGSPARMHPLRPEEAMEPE

[10] = target: Mitogen-activated protein kinase 10 (Homo sapiens) (UniProt P53779); assay: Inhibition of JNK3 (unknown origin) at 10 uM after 120 mins P33 radiolabeled kinase activity assay
[11] = target: TGF-beta receptor type-2 (Homo sapiens) (UniProt P37173); assay: Inhibition of TGFBR2 (unknown origin) at 10 uM after 120 mins P33 radiolabeled kinase activity assay
[12] = target: Mitogen-activated protein kinase kinase kinase 21 (Homo sapiens) (UniProt Q5TCX8); assay: Inhibition of MLK4 (unknown origin) at 10 uM after 120 mins P33 radiolabeled kinase activity assay
[13] = target: Serine/threonine-protein kinase Nek7 (Homo sapiens) (UniProt Q8TDX7); assay: Inhibition of NEK7 (unknown origin) at 10 uM after 120 mins P33 radiolabeled kinase activity assay
Serine/threonine-protein kinase Nek7 (Homo sapiens), sequence (Q8TDX7 whole entry, looked up): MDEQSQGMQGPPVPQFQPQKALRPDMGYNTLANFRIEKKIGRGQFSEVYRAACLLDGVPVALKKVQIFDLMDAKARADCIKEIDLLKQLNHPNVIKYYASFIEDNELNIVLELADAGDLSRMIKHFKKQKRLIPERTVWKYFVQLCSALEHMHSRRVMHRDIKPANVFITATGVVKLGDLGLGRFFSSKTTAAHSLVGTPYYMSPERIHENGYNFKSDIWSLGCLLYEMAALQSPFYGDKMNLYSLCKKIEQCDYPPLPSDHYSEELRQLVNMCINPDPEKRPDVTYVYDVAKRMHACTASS

[14] = target: Serine/threonine-protein kinase tousled-like 2 (Homo sapiens) (UniProt Q86UE8); assay: Inhibition of TLK2 (unknown origin) at 10 uM after 120 mins P33 radiolabeled kinase activity assay
[15] = target: Serine/threonine-protein kinase 16 (Homo sapiens) (UniProt O75716); assay: Inhibition of STK16 (unknown origin) at 10 uM after 120 mins P33 radiolabeled kinase activity assay
[16] = target: Activin receptor type-1B (Homo sapiens) (UniProt P36896); assay: Inhibition of ALK4 (unknown origin) at 10 uM after 120 mins P33 radiolabeled kinase activity assay
[17] = target: LIM domain kinase 2 (Homo sapiens) (UniProt P53671); assay: Inhibition of LIMK2 (unknown origin) at 10 uM after 120 mins P33 radiolabeled kinase activity assay
[18] = target: Rho-associated protein kinase 1 (Homo sapiens) (UniProt Q13464); assay: Inhibition of ROCK1 (unknown origin) at 10 uM after 120 mins P33 radiolabeled kinase activity assay
[19] = target: Mitogen-activated protein kinase kinase kinase 3 (Homo sapiens) (UniProt Q99759); assay: Inhibition of MEKK3 (unknown origin) at 10 uM after 120 mins P33 radiolabeled kinase activity assay
[20] = target: Serine/threonine-protein kinase Sgk2 (Homo sapiens) (UniProt Q9HBY8); assay: Inhibition of SGK2 (unknown origin) at 10 uM after 120 mins P33 radiolabeled kinase activity assay
Serine/threonine-protein kinase Sgk2 (Homo sapiens), sequence (Q9HBY8 whole entry): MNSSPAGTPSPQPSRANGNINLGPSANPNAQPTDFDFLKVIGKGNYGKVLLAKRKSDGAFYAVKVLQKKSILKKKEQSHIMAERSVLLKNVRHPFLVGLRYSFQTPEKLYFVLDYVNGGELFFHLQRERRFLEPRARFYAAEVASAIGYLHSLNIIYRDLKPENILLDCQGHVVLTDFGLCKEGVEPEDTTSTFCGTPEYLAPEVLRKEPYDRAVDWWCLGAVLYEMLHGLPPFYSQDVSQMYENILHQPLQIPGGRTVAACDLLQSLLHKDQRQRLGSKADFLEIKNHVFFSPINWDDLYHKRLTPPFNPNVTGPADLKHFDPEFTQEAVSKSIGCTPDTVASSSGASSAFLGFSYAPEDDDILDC

[21] = target: Bone morphogenetic protein receptor type-1B (Homo sapiens) (UniProt O00238); assay: Inhibition of ALK6 (unknown origin) at 10 uM after 120 mins P33 radiolabeled kinase activity assay
[22] = test system: Fibroblast growth factor receptor; assay: Inhibition of FGFR (unknown origin) at 10 uM after 120 mins P33 radiolabeled kinase activity assay; conditions: Homo sapiens
[23] = target: Serine/threonine-protein kinase Nek6 (Homo sapiens) (UniProt Q9HC98); assay: Inhibition of NEK6 (unknown origin) at 10 uM after 120 mins P33 radiolabeled kinase activity assay
[24] = target: Tau-tubulin kinase 1 (Homo sapiens) (UniProt Q5TCY1); assay: Inhibition of TTBK1 (unknown origin) at 10 uM after 120 mins P33 radiolabeled kinase activity assay
[25] = target: Serine/threonine-protein kinase 3 (Homo sapiens) (UniProt Q13188); assay: Inhibition of MST2 (unknown origin) at 10 uM after 120 mins P33 radiolabeled kinase activity assay
Serine/threonine-protein kinase 3 (Homo sapiens), sequence (Q13188 whole entry): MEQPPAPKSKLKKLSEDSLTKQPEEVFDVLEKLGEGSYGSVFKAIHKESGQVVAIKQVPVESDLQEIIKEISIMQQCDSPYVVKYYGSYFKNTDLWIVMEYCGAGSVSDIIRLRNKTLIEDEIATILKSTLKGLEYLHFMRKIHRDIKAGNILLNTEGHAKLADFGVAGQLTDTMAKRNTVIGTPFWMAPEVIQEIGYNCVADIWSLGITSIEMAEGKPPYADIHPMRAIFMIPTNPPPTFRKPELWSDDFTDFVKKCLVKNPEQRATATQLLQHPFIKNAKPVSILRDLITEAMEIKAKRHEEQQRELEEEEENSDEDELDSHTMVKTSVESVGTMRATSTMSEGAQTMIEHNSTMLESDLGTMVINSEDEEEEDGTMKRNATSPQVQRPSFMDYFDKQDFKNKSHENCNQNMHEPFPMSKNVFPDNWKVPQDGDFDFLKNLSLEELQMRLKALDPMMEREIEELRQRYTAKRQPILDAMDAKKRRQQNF

[26] = target: Dual specificity tyrosine-phosphorylation-regulated kinase 4 (Homo sapiens) (UniProt Q9NR20); assay: Inhibition of DYRK4 (unknown origin) at 10 uM after 120 mins P33 radiolabeled kinase activity assay
[27] = target: Serine/threonine-protein kinase 25 (Homo sapiens) (UniProt O00506); assay: Inhibition of STK25 (unknown origin) at 10 uM after 120 mins P33 radiolabeled kinase activity assay
Serine/threonine-protein kinase 25 (Homo sapiens), sequence (O00506 whole entry, looked up): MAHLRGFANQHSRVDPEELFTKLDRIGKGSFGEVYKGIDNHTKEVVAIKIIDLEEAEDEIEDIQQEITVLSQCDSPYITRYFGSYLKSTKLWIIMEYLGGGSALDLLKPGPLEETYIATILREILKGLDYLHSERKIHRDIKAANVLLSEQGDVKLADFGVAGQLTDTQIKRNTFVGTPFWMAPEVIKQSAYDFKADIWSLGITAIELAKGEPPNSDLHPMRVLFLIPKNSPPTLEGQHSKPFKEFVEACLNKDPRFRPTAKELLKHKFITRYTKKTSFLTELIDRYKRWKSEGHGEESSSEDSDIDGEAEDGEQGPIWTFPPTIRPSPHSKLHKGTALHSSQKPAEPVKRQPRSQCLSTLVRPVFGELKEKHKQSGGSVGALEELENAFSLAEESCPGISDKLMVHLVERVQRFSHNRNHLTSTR

[28] = target: Lymphokine-activated killer T-cell-originated protein kinase (Homo sapiens) (UniProt Q96KB5); assay: Inhibition of PBK (unknown origin) at 10 uM after 120 mins P33 radiolabeled kinase activity assay
Lymphokine-activated killer T-cell-originated protein kinase (Homo sapiens), sequence (Q96KB5 whole entry): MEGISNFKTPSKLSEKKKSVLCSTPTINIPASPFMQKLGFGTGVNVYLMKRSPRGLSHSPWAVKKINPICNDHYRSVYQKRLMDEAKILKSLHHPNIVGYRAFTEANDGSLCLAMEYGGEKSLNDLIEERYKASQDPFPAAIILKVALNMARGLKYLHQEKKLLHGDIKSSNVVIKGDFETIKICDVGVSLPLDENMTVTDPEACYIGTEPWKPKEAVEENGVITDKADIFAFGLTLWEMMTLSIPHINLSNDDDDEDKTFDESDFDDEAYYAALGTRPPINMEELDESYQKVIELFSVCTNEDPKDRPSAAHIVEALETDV

[29] = target: Serine/threonine-protein kinase VRK2 (Homo sapiens) (UniProt Q86Y07); assay: Inhibition of VRK2 (unknown origin) at 10 uM after 120 mins P33 radiolabeled kinase activity assay
[30] = target: Testis-specific serine/threonine-protein kinase 6 (Homo sapiens) (UniProt Q9BXA6); assay: Inhibition of SSTK (unknown origin) at 10 uM after 120 mins P33 radiolabeled kinase activity assay
Testis-specific serine/threonine-protein kinase 6 (Homo sapiens), sequence (Q9BXA6 whole entry): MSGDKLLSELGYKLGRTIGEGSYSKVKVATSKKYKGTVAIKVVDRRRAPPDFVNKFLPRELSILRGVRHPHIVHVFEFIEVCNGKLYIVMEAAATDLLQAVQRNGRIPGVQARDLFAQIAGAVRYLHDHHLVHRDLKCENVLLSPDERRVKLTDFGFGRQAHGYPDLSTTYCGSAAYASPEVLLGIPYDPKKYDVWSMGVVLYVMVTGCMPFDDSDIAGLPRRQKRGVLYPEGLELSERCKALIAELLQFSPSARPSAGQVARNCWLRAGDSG

[31] = target: Serine/threonine-protein kinase 24 (Homo sapiens) (UniProt Q9Y6E0); assay: Inhibition of MST3 (unknown origin) at 10 uM after 120 mins P33 radiolabeled kinase activity assay
[32] = target: Calcium/calmodulin-dependent protein kinase kinase 1 (Homo sapiens) (UniProt Q8N5S9); assay: Inhibition of CAMKK1 (unknown origin) at 10 uM after 120 mins P33 radiolabeled kinase activity assay
Calcium/calmodulin-dependent protein kinase kinase 1 (Homo sapiens), sequence (Q8N5S9 whole entry, looked up): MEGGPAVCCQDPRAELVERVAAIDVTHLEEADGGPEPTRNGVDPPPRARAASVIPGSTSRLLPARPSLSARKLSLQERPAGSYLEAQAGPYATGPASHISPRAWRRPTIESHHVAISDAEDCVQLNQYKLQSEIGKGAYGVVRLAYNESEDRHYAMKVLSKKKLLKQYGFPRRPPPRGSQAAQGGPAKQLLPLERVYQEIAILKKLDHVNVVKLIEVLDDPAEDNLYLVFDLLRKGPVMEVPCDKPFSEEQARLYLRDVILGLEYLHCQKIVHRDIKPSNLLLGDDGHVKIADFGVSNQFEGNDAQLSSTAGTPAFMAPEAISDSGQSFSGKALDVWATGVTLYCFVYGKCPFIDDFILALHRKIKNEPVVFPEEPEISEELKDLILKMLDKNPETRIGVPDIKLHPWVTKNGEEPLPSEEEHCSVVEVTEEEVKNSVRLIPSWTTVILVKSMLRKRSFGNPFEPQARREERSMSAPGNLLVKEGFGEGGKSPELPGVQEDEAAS

[33] = target: Mitogen-activated protein kinase 7 (Homo sapiens) (UniProt Q13164); assay: Inhibition of ERK5 (unknown origin) at 10 uM after 120 mins P33 radiolabeled kinase activity assay
[34] = target: Wee1-like protein kinase (Homo sapiens) (UniProt P30291); assay: Inhibition of WEE1 (unknown origin) at 10 uM after 120 mins P33 radiolabeled kinase activity assay

Dual specificity mitogen-activated protein kinase kinase 4 (Homo sapiens), sequence (P45985 whole entry): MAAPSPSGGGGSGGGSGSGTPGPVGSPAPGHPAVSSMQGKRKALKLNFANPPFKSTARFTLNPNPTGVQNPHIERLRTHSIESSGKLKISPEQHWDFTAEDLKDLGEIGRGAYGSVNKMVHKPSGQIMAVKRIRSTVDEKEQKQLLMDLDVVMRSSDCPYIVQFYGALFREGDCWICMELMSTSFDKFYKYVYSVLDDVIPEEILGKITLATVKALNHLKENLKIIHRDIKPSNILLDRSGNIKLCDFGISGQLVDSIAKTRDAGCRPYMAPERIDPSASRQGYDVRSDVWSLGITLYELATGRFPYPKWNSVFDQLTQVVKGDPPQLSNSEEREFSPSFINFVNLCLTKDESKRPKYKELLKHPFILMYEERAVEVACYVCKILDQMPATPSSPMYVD

CS(=O)(=O)c1cccc(Nc2nccc(-c3sc(N4CCOCC4)nc3-c3cccc(NS(=O)(=O)c4c(F)cccc4F)c3)n2)c1
inhibition [1]: 19.4%
inhibition [2]: 19.6%
inhibition [3]: -4.6%
inhibition [4]: -4.48%
inhibition [5]: -6.79%
inhibition [6]: 80.9%
inhibition [7]: 11.2%
inhibition [8]: -5.48%
inhibition [9]: -1.4%
inhibition [10]: -7.87%
inhibition [11]: 96.6%
inhibition [12]: 49.7%
inhibition [13]: 33.7%
inhibition [14]: -6.51%
inhibition [15]: 7.44%
inhibition [16]: 42.4%
inhibition [17]: 99.1%
inhibition [18]: -6.9%
inhibition [19]: 9.88%
inhibition [20]: 50%
inhibition [21]: 92.8%
inhibition [22]: 46.7%

COCCNC(=O)c1ccc2c(c1)nc(-c1cnc(-c3ccc(Cl)cc3)[nH]1)n2CCOC
inhibition [23]: -5.95%
inhibition [24]: 7.91%
inhibition [25]: -5.33%
inhibition [26]: -3.46%
inhibition [4]: -7.05%
inhibition [5]: -3.57%
inhibition [27]: -0.09%
inhibition [28]: 11.6%
inhibition [29]: -4.56%
inhibition [30]: -0.51%
inhibition [13]: 6.02%
inhibition [31]: 23.8%
inhibition [32]: -7.72%

CC(C)(C)c1cc(NC(=O)Nc2ccc(Oc3ccncc3)cc2)no1
inhibition [1]: 1.14%
inhibition [24]: 8.16%
inhibition [2]: 6.56%
inhibition [25]: -4.9%
inhibition [33]: -8.59%
inhibition [34]: -4.91%
inhibition [28]: 12.2%
inhibition [9]: 54.2%
inhibition [29]: -5.34%
inhibition [30]: 7.1%
inhibition [17]: 53.8%
inhibition [18]: 9.07%
inhibition [32]: 60.5%
inhibition [20]: 15.5%
